In patent US10815274B2, “Immunogenic WT-1 peptides and methods of use thereof” (Memorial Sloan Kettering Cancer Center, priority 2012, dated 2020):
Where a SMILES comes first, the peptide text is derived from it.

Tests used:
Conditions in all cases: 50:1 E:T
WT1- autologous APC = assay: Cr51 release assay, cytotoxic CTL response vs unmodified autologous APC; format: cell-based, human
[1] = tested on: WT1+ allo APC with restricting HLA allele loaded with WT1 peptide; assay: Cr51 release assay, cytotoxic CTL response vs peptide loaded allogeneic APC sharing restricting HLA allele (HLA restriction)
[2] = tested on: WT1- allo APC with restricting HLA allele; assay: Cr51 release assay, cytotoxic CTL response vs unloaded allogeneic APC sharing restricting HLA allele; format: cell-based, human
[3] = tested on: WT1 peptide loaded autologous APC; assay: Cr51 release assay, cytotoxic CTL response vs peptide loaded autologous APC; format: cell-based, human

With `CC(C)C[C@H](NC(=O)[C@H](CO)NC(=O)[C@@H]1CCCN1C(=O)[C@@H]1CCCN1C(=O)[C@H](Cc1ccccc1)NC(=O)[C@@H](N)Cc1c[nH]cn1)C(=O)N1CCC[C@H]1C(=O)N1CCC[C@H]1C(=O)N[C@H](C(=O)O)[C@@H](C)O` [SEQ ID NO: 145] (H-HFPPSLPPT-OH; N-terminus and C-terminus assumed) the “Cytotoxic CTL response, % vs WT1- autologous APC” value (WT1- autologous APC; HLA allele A3101) was 0%, the “Cytotoxic CTL response, % vs WT1+ allo APC with restricting HLA allele loaded with WT1 peptide” value (“Cytotoxic CTL response, % … with WT1 peptide” below) ([1]; HLA allele A3101) was 27% and the “Cytotoxic CTL response, % vs WT1- allo APC with restricting HLA allele” value ([2]; HLA allele A3101) was 0%. The “Cytotoxic CTL response, % vs WT1 peptide loaded autologous APC” value ([3]; HLA allele A3101) was 42%.
In the case of `CC(C)C[C@H](NC(=O)[C@H](CS)NC(=O)CNC(=O)[C@@H]1CCCN1)C(=O)N[C@@H](CCC(N)=O)C(=O)N[C@@H](CCC(N)=O)C(=O)N1CCC[C@H]1C(=O)N[C@@H](CCC(=O)O)C(=O)N[C@@H](CCC(N)=O)C(=O)N[C@@H](CCC(N)=O)C(=O)NCC(=O)O` [SEQ ID NO: 149] (H-PGCLQQPEQQG-OH; N-terminus and C-terminus assumed), the “Cytotoxic CTL response, % vs WT1- autologous APC” value (WT1- autologous APC; HLA allele DRB10101) is reported as 6%, the “Cytotoxic CTL response, % … with WT1 peptide” value ([1]; HLA allele DRB10101) is reported as 25% and the “Cytotoxic CTL response, % vs WT1- allo APC with restricting HLA allele” value ([2]; HLA allele DRB10101) is reported as 1%. The “Cytotoxic CTL response, % vs WT1 peptide loaded autologous APC” value ([3]; HLA allele DRB10101) was 54%.
With `CC(C)C[C@H](NC(=O)[C@@H](NC(=O)[C@@H]1CCCN1C(=O)[C@H](C)NC(=O)[C@H](Cc1c[nH]c2ccccc12)NC(=O)[C@H](CCC(N)=O)NC(=O)[C@H](C)NC(=O)[C@H](C)NC(=O)CN)C(C)C)C(=O)O` [SEQ ID NO: 154] (H-GAAQWAPVL-OH; N-terminus and C-terminus assumed) the “Cytotoxic CTL response, % vs WT1- autologous APC” value (WT1- autologous APC; HLA allele B3901) was 2%, the “Cytotoxic CTL response, % … with WT1 peptide” value ([1]; HLA allele B3901) was 19% and the “Cytotoxic CTL response, % vs WT1- allo APC with restricting HLA allele” value ([2]; HLA allele B3901) was 0%. For the same molecule, the “Cytotoxic CTL response, % vs WT1 peptide loaded autologous APC” value ([3]; HLA allele B3901) was 31%.
`C[C@H](N)C(=O)N[C@@H](CS)C(=O)N[C@@H](CCCNC(=N)N)C(=O)N[C@@H](Cc1ccc(O)cc1)C(=O)NCC(=O)N1CCC[C@H]1C(=O)N[C@@H](Cc1ccccc1)C(=O)NCC(=O)N1CCC[C@H]1C(=O)O` [SEQ ID NO: 159] (H-ACRYGPFGP-OH; N-terminus and C-terminus assumed) was tested, and the “Cytotoxic CTL response, % vs WT1- autologous APC” value (WT1- autologous APC; HLA allele B4402) was 8%, the “Cytotoxic CTL response, % … with WT1 peptide” value ([1]; HLA allele B4402) was 23% and the “Cytotoxic CTL response, % vs WT1- allo APC with restricting HLA allele” value ([2]; HLA allele B4402) was 7%. For the same molecule, the “Cytotoxic CTL response, % vs WT1 peptide loaded autologous APC” value ([3]; HLA allele B4402) was 46%.
In the case of `CSCC[C@H](NC(=O)[C@H](CCCNC(=N)N)NC(=O)[C@H](C)NC(=O)[C@H](CCC(N)=O)NC(=O)CNC(=O)[C@@H](N)CO)C(=O)N[C@@H](Cc1ccccc1)C(=O)N1CCC[C@H]1C(=O)N[C@@H](CC(N)=O)C(=O)O` [SEQ ID NO: 160] (H-SGQARMFPN-OH; N-terminus and C-terminus assumed), the “Cytotoxic CTL response, % vs WT1- autologous APC” value (WT1- autologous APC; HLA allele B3503) is reported as 0%, the “Cytotoxic CTL response, % vs WT1- autologous APC” value (WT1- autologous APC; HLA allele C0401) is reported as 0% and the “Cytotoxic CTL response, % … with WT1 peptide” value ([1]; HLA allele B3503) is reported as 41%. The “Cytotoxic CTL response, % … with WT1 peptide” value ([1]; HLA allele C0401) was 41%, the “Cytotoxic CTL response, % vs WT1- allo APC with restricting HLA allele” value ([2]; HLA allele B3503) was 3% and the “Cytotoxic CTL response, % vs WT1- allo APC with restricting HLA allele” value ([2]; HLA allele C0401) was 3%. For the same molecule, the “Cytotoxic CTL response, % vs WT1 peptide loaded autologous APC” value ([3]; HLA allele B3503) was 84% and the “Cytotoxic CTL response, % vs WT1 peptide loaded autologous APC” value ([3]; HLA allele C0401) was 84%.
With `CC(C)C[C@H](NC(=O)[C@H](CS)NC(=O)[C@H](CO)NC(=O)[C@@H]1CCCN1)C(=O)N[C@@H](CCC(=O)O)C(=O)N[C@@H](CO)C(=O)N[C@@H](CCC(N)=O)C(=O)N1CCC[C@H]1C(=O)N[C@@H](C)C(=O)O` [SEQ ID NO: 162] (H-PSCLESQPA-OH; N-terminus and C-terminus assumed) the “Cytotoxic CTL response, % vs WT1- autologous APC” value (WT1- autologous APC; HLA allele B3501) was 0%, the “Cytotoxic CTL response, % … with WT1 peptide” value ([1]; HLA allele B3501) was 21% and the “Cytotoxic CTL response, % vs WT1- allo APC with restricting HLA allele” value ([2]; HLA allele B3501) was 0%. The “Cytotoxic CTL response, % vs WT1 peptide loaded autologous APC” value ([3]; HLA allele B3501) was 35%.
